This test addresses T1, human mAChR M4 (Homo sapiens, UniProt P08173).
T1 construct: expressed in transfected cells
T1 sequence (P08173 1-479): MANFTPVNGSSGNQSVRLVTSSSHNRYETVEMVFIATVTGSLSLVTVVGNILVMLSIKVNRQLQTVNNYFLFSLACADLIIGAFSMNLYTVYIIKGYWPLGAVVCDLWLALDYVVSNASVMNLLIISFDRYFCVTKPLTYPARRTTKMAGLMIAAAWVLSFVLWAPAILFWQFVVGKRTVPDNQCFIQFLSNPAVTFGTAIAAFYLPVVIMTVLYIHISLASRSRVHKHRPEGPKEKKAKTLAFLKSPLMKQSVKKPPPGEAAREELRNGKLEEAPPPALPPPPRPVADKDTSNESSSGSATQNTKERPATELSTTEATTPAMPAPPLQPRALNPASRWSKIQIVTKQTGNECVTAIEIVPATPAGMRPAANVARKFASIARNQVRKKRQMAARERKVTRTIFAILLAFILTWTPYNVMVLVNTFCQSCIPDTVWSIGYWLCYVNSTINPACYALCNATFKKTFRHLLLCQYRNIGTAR
Put plainly: mAChR M4 cell-based functional assay (calcium mobilization, CHO-K1 hM4-Gqi5 cells). The following applies: for EC50: positive allosteric modulator activity, increase in the EC20 acetylcholine response, CHO-K1 hM4-Gqi5 cells, read-out: Human M4 EC50. An outline of the steps:
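CHO-K1 cells stably expressing human M4 with chimeric Gqi5, loaded with Fluo-4 AM; compounds given as 11-point 1:3 curves and calcium flux read on FDSS at 1 Hz. Acetylcholine EC20 added at 144 s, EC80 at 230 s; agonist, PAM (EC20 potentiation) and antagonist (EC80 inhibition) EC50/Emax from four-parameter fits.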
On the technique in general: Calcium assays in cells follow changes in intracellular calcium, usually with a dye or a luminescent sensor.

The mark [1] stands for this setting: CHO-K1, % ACh maximum at 30 μM, human M4.

Where only a bound is given, the exact number is not on record here.

As a reminder, the Emax is the maximal effect, on the per cent scale that the assay sets. A word on the EC50: it is the concentration giving half of the maximal effect. On to `Cc1cc(C(=O)N2CCC2)nnc1N1CCc2ncc(N3CCCn4nccc43)cc2C1` [Example 545, azetidin-1-yl(6-(3-(6,7-dihydropyrazolo[1,5-a]pyrimidin-4(5H)-yl)-7,8-dihydro-1,6-naphthyridin-6(5H)-yl)-5-methylpyridazin-3-yl)methanone], for which the concentration for a half-maximal effect (EC50) came to 46 nM. Under setting [1], the Emax at 30 µM was found to be 125%.
Take `Cc1cc(C#N)cnc1N1CCc2ncccc2C1` [compound 45, 6-(7,8-dihydro-5H-1,6-naphthyridin-6-yl)-5-methyl-pyridine-3-carbonitrile]: the EC50 worked out at 1190 nM. Moreover, the Emax (CHO-K1) worked out at 97%.
As for `Cc1cc(C(=O)NC2CN(CC(F)(F)F)C2)nnc1N1CCc2ncc(N3CCCn4nccc43)cc2C1` [Example 520, 6-(3-(6,7-dihydropyrazolo[1,5-a]pyrimidin-4(5H)-yl)-7,8-dihydro-1,6-naphthyridin-6(5H)-yl)-5-methyl-N-(1-(2,2,2-trifluoroethyl)azetidin-3-yl)pyridazine-3-carboxamide], the EC50 came out at 43 nM. Further, under setting [1], the Emax at 30 µM came out at 104%.
The like results for `Cc1cc(C#N)cnc1N1CCc2ncc(-c3ccnc(C#N)c3)cc2C1` [Example 336, 4-(6-(5-cyano-3-methylpyridin-2-yl)-5,6,7,8-tetrahydro-1,6-naphthyridin-3-yl)picolinonitrile] were, in that order, 258 nM and 49%.
Take `Cc1cc(C(=O)N2CC(C(F)F)C2)nnc1N1CCc2ncc(-c3ccnn3C)cc2C1` [Example 562, (3-(difluoromethyl)azetidin-1-yl)(5-methyl-6-(3-(1-methyl-1H-pyrazol-5-yl)-7,8-dihydro-1,6-naphthyridin-6(5H)-yl)pyridazin-3-yl)methanone]: the EC50 is 91 nM. Moreover, the Emax at 30 µM under setting [1] was 74%.
The matching figures for `Cc1cc(C#N)nnc1N1CCc2ncc(C3CCC3)cc2C1` [Example 402, 6-(3-cyclobutyl-7,8-dihydro-1,6-naphthyridin-6(5H)-yl)-5-methylpyridazine-3-carbonitrile]: 150 nM and 91%.
For `Cc1nc(C(=O)N2CCOCC2)c(C)c(N2CCc3ncc(C(F)(F)F)cc3C2)n1` [compound 221, (2,5-dimethyl-6-(3-(trifluoromethyl)-7,8-dihydro-1,6-naphthyridin-6(5H)-yl)pyrimidin-4-yl)(morpholino)methanone], the EC50 was not below 10000 nM. Further, the Emax at 30 µM under setting [1] turned out to be 25%.
The like results for `Cc1cc(CNC(=O)c2cnc(N3CCc4ncccc4C3)c(C)c2)ccn1` [compound 129, 6-(7,8-dihydro-5H-1,6-naphthyridin-6-yl)-5-methyl-N-[(2-methyl-4-pyridyl)methyl]pyridine-3-carboxamide] were, in that order, 3340 nM and 61%.
The like results for `Cc1ccc(Oc2cnc3c(c2)CN(c2ncc(C#N)cc2C)CC3)c(F)c1` [Example 349, 6-(3-(2-fluoro-4-methylphenoxy)-7,8-dihydro-1,6-naphthyridin-6(5H)-yl)-5-methylnicotinonitrile] were, in that order, 1120 nM and 72%.
The matching figures for `Cc1cc(C(=O)NCc2cnc(Cl)s2)cnc1N1CCc2ncc(-c3cn(C)nc3C)cc2C1` [Example 455, N-((2-chlorothiazol-5-yl)methyl)-6-(3-(1,3-dimethyl-1H-pyrazol-4-yl)-7,8-dihydro-1,6-naphthyridin-6(5H)-yl)-5-methylnicotinamide]: 581 nM and 93%.
As to `Cc1cc(C#N)cnc1N1CCc2ncc(Oc3cc(F)ccc3F)cc2C1` [Example 351, 6-(3-(2,5-difluorophenoxy)-7,8-dihydro-1,6-naphthyridin-6(5H)-yl)-5-methylnicotinonitrile], the EC50 is 160 nM. For the same molecule, under setting [1], the Emax at 30 µM came out at 88%.
The like results for `Cc1cc(C(=O)N2CC(F)(F)C2)nnc1N1CCc2ncc(N3CCO[C@H](C)C3)cc2C1` [Example 539, (R)-(3,3-difluoroazetidin-1-yl)(5-methyl-6-(3-(2-methylmorpholino)-7,8-dihydro-1,6-naphthyridin-6(5H)-yl)pyridazin-3-yl)methanone] were, in that order, 51 nM and 101%.
The like results for `Cc1cc(C(=O)N2CC(C(C)(C)O)C2)nnc1N1CCc2ncc(N3CCCn4nccc43)cc2C1` [Example 528, (6-(3-(6,7-dihydropyrazolo[1,5-a]pyrimidin-4(5H)-yl)-7,8-dihydro-1,6-naphthyridin-6(5H)-yl)-5-methylpyridazin-3-yl)(3-(2-hydroxypropan-2-yl)azetidin-1-yl)methanone] were, in that order, 53 nM and 102%.
The matching figures for `Cc1cc(C(=O)NCc2ccc3c(c2)n(C)c(=O)n3C)cnc1N1CCc2ncccc2C1` [compound 158, 6-(7,8-dihydro-5H-1,6-naphthyridin-6-yl)-N-[(1,3-dimethyl-2-oxo-benzimidazol-5-yl)methyl]-5-methyl-pyridine-3-carboxamide]: 3640 nM and 68%.
On to `Cc1c(C#N)nnc(N2CCc3ncc(N4CC(C)Cn5nccc54)cc3C2)c1C` (stereo not drawn) [Example 374, 4,5-dimethyl-6-(3-(6-methyl-6,7-dihydropyrazolo[1,5-a]pyrimidin-4(5H)-yl)-7,8-dihydro-1,6-naphthyridin-6(5H)-yl)pyridazine-3-carbonitrile], for which the EC50 was 248 nM. Besides, under setting [1], the Emax at 30 µM turned out to be 96%.
The matching figures for `Cc1nn(C)cc1-c1cnc2c(c1)CN(c1nc(NC3CC3)nc(C)c1C)CC2` [compound 272, N-cyclopropyl-4-(3-(1,3-dimethyl-1H-pyrazol-4-yl)-7,8-dihydro-1,6-naphthyridin-6(5H)-yl)-5,6-dimethylpyrimidin-2-amine]: 466 nM and 78%.
As to `Cc1nc(Cl)c(C)c(N2Cc3cc(Nc4ccnn4C)cnc3C(C)(C)C2)n1` [compound 239, 6-(6-chloro-2,5-dimethylpyrimidin-4-yl)-8,8-dimethyl-N-(1-methyl-1H-pyrazol-5-yl)-5,6,7,8-tetrahydro-1,6-naphthyridin-3-amine], the EC50 came out at 911 nM. The Emax at 30 µM under setting [1] amounted to 58%.
The matching figures for `Cc1nc(Cl)c(C)c(N2CCc3ncc(Nc4cc(F)ccc4F)cc3C2)n1` [compound 88, 6-(6-chloro-2,5-dimethyl-pyrimidin-4-yl)-N-(2,5-difluorophenyl)-7,8-dihydro-5H-1,6-naphthyridin-3-amine]: 731 nM and 86%.
The matching figures for `Cc1nc(Cl)c(C)c(N2Cc3cc([N+](=O)[O-])cnc3C(C)C2)n1` (stereo not drawn) [compound 222, 6-(6-chloro-2,5-dimethylpyrimidin-4-yl)-8-methyl-3-nitro-5,6,7,8-tetrahydro-1,6-naphthyridine]: 333 nM and 91%.
On to `Cc1cc(C#N)nnc1N1CCc2ncc(CC(F)(F)F)cc2C1` [Example 422, 5-methyl-6-(3-(2,2,2-trifluoroethyl)-7,8-dihydro-1,6-naphthyridin-6(5H)-yl)pyridazine-3-carbonitrile], for which the EC50 was 523 nM. Besides, under setting [1], the Emax at 30 µM was 94%.
Turning to `Cc1nc(Cl)c(C)c(N2CCc3ncc(C(F)(F)F)cc3C2)n1` [compound 200, 6-(6-chloro-2,5-dimethyl-pyrimidin-4-yl)-3-(trifluoromethyl)-7,8-dihydro-5H-1,6-naphthyridine], the 50% effective concentration (EC50) amounted to 128 nM. Besides, the Emax at 30 µM under setting [1] was 96%.
The like results for `Cc1cc(C(=O)NCc2ncc(F)cn2)cnc1N1CCc2ncccc2C1` [compound 147, 6-(7,8-dihydro-5H-1,6-naphthyridin-6-yl)-N-[(5-fluoropyrimidin-2-yl)methyl]-5-methyl-pyridine-3-carboxamide] were, in that order, not below 10000 nM and 52%.
The matching figures for `Cc1cc(C#N)cnc1N1CCc2ncc(-c3cnn(C4CCC4)c3)cc2C1` [compound 101, 6-[3-(1-cyclobutylpyrazol-4-yl)-7,8-dihydro-5H-1,6-naphthyridin-6-yl]-5-methyl-pyridine-3-carbonitrile]: 339 nM and 91%.
The matching figures for `Cc1cc(C#N)cnc1N1CCc2ncc(C(F)(F)F)cc2C1` [compound 165, 5-methyl-6-[3-(trifluoromethyl)-7,8-dihydro-5H-1,6-naphthyridin-6-yl]pyridine-3-carbonitrile]: 145 nM and 111%.
Turning to `Cc1cc(-c2cnc3c(c2)CN(c2nnc(C#N)c(C)c2C)CC3)ccn1` [Example 12], the EC50 was 273 nM. Also, under setting [1], the Emax was found to be 67%.
As for `Cc1cc(C(=O)NC2CCOCC2)cnc1N1CCc2ncccc2C1` [compound 122, 6-(7,8-dihydro-5H-1,6-naphthyridin-6-yl)-5-methyl-N-tetrahydropyran-4-yl-pyridine-3-carboxamide], the EC50 is not below 10000 nM. Besides, the maximal response (Emax) at 30 µM under setting [1] was 55%.
The matching figures for `Cc1cc(C#N)cnc1N1CCc2ncc(Oc3ccc4c(cnn4C)c3)cc2C1` [compound 183, 5-methyl-6-[3-(1-methylindazol-5-yl)oxy-7,8-dihydro-5H-1,6-naphthyridin-6-yl]pyridine-3-carbonitrile]: 164 nM and 91%.

These data come from patent publication US20250230155A1 (Vanderbilt University, priority 2021, published 2025).
